Test results from the supplement of paper PMC11061612.

Columns and labels:
Test in all cases: combination Emax (second highest fraction inhibited in the dose matrix, 72 h); higher = more inhibition; extreme values may be limits of the assay
[1] = system: 697 (B-Lymphoblastic Leukemia)
In short: (§1)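 Cell lines grown in DMEM/F12 or RPMI with 10% FBS were plated in 1536-well plates and held 24 hours at 37°C, 5% CO2 before 72 hours of exposure to two-drug dose matrices, with DMSO typically at 0.2%. CellTiter-Glo 2.0 luminescence gave viability, which was converted to inhibition. Vehicle wells were set to 0 and blank wells to 1. Combination Emax is the second-highest inhibition in the matrix, and Bliss excess is the observed combination effect minus the expected EA + EB − EA·EB, where EA and EB are the single-agent effects.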

[2] = system: C3A (Hepatocellular Carcinoma)
In short: as §1

[3] = system: CAL-78 (Chondrosarcoma)
In short: as §1

[4] = system: DB (B-Cell Non-Hodgkin's Lymphoma)
In short: as §1

[5] = system: DOV13 (Ovarian Carcinoma)
In short: as §1

[6] = system: DSH1 (Bladder Carcinoma)
In short: as §1

[7] = system: EM-2 (Chronic Myelogenous Leukemia)
In short: as §1

[8] = system: J82 (Bladder Carcinoma)
In short: as §1

[9] = system: JiyoyeP-2003 (Burkitt's Lymphoma)
In short: as §1

[10] = system: KARPAS-620 (Plasma Cell Myeloma)
In short: as §1

[11] = system: LS-513 (Colorectal Carcinoma)
In short: as §1

[12] = system: LU-99A (Non-Small Cell Lung Carcinoma)
In short: as §1

[13] = system: MDA-MB-231 (Breast Carcinoma)
In short: as §1

[14] = system: MFH-ino (Other Solid Carcinomas)
In short: as §1

[15] = system: NCI-H1299 (Non-Small Cell Lung Carcinoma)
In short: as §1

[16] = system: NCI-H1793 (Lung Adenocarcinoma)
In short: as §1

[17] = system: SK-N-FI (Neuroblastoma)
In short: as §1

[18] = system: SN12C (Kidney Carcinoma)
In short: as §1

[19] = system: SUIT-2 (Pancreatic Carcinoma)
In short: as §1

[20] = system: TE-5 (Esophageal Squamous Cell Carcinoma)
In short: as §1

Compound | combination Emax [1] | combination Emax [2] | combination Emax [3] | combination Emax [4] | combination Emax [5] | combination Emax [6] | combination Emax [7] | combination Emax [8] | combination Emax [9] | combination Emax [10] | combination Emax [11] | combination Emax [12] | combination Emax [13] | combination Emax [14] | combination Emax [15] | combination Emax [16] | combination Emax [17] | combination Emax [18] | combination Emax [19] | combination Emax [20]
COc1cccc(OCCCN)c1-c1cc(Nc2cnc(C#N)cn2)n[nH]1 [Prexasertib] + C=CCn1c(=O)c2cnc(Nc3ccc(N4CCN(C)CC4)cc3)nc2n1-c1cccc(C(C)(C)O)n1 [AZD1775] (first compound max 1 µM, partner max 1 µM) | 1 | 0.674 | 0.643 | 0.945 | 0.971 | 0.84 | 0.986 | 0.577 | 0.984 | 0.904 | 0.949 | 0.806 | 0.9 | 0.397 | 0.799 | 0.532 | 0.862 | 0.608 | 0.707 | 0.625
NC1(C(=O)N[C@@H](CCO)c2ccc(Cl)cc2)CCN(c2ncnc3[nH]ccc23)CC1 [Capivasertib] + COc1nnc2ccc(N3CCC(c4ccc(OCCN5CCN(C)C(=O)[C@H]5C)cc4)CC3)nn12 [AZD5153] (first compound max 10 µM, 7x7, partner max 1 µM) | 0.985 | 0.478 | 0.489 | 0.669 | 0.535 | 0.941 | 0.958 | 0.632 | 0.912 | 0.897 | 0.641 | 0.665 | 0.703 | 0.513 | 0.669 | 0.37 | 0.579 | 0.152 | 0.535 | 0.609
C=CCn1c(=O)c2cnc(Nc3ccc(N4CCN(C)CC4)cc3)nc2n1-c1cccc(C(C)(C)O)n1 [AZD1775] + C[C@@H]1COCCN1C2=NC(=NC(=C2)C3(CC3)[S@](=N)(=O)C)C4=C5C=CNC5=NC=C4 [AZD6738] (first compound max 1 µM, partner max 10 µM) | 1 | 0.567 | 0.839 | 0.934 | 0.928 | 0.862 | 0.977 | 0.414 | 0.982 | 0.753 | 0.87 | 0.694 | 0.84 | 0.536 | 0.889 | 0.548 | 0.857 | 0.408 | 0.728 | 0.577
CC1(C)CCC(CN2CCN(c3ccc(C(=O)NS(=O)(=O)c4ccc(NCC5CCOCC5)c([N+](=O)[O-])c4)c(Oc4cnc5[nH]ccc5c4)c3)CC2)=C(c2ccc(Cl)cc2)C1 [Venetoclax] + C[C@@H]1COCCN1C2=NC(=NC(=C2)C3(CC3)[S@](=N)(=O)C)C4=C5C=CNC5=NC=C4 [AZD6738] (first compound max 1 µM, 7x7, partner max 10 µM) | 1 | 0.452 | 0.605 | 0.983 | 0.91 | 0.659 | 0.943 | 0.483 | 0.954 | 0.996 | 0.677 | 0.619 | 0.624 | 0.5 | 0.534 | 0.508 | 0.766 | 0.287 | 0.471 | 0.593
CC1(C)CCC(CN2CCN(c3ccc(C(=O)NS(=O)(=O)c4ccc(NCC5CCOCC5)c([N+](=O)[O-])c4)c(Oc4cnc5[nH]ccc5c4)c3)CC2)=C(c2ccc(Cl)cc2)C1 [Venetoclax] + Cc1cc2ncnn2cc1Nc1ncc2c(n1)n(C1CCOCC1)c(=O)n2C [AZD7648] (first compound max 1 µM, 7x7, partner max 10 µM) | 0.983 | 0.212 | 0.234 | 0.957 | 0.476 | 0.187 | 0.254 | 0.131 | 0.317 | 0.989 | 0.192 | 0.404 | 0.356 | 0.318 | 0.224 | 0.41 | 0.262 | 0.218 | 0.198 | 0.284
CC1(C)CCC(CN2CCN(c3ccc(C(=O)NS(=O)(=O)c4ccc(NCC5CCOCC5)c([N+](=O)[O-])c4)c(Oc4cnc5[nH]ccc5c4)c3)CC2)=C(c2ccc(Cl)cc2)C1 [Venetoclax] + CCN(CCO)CCCOc1ccc2c(Nc3cc(CC(=O)Nc4cccc(F)c4)[nH]n3)ncnc2c1 [AZD2811] (first compound max 1 µM, 7x7, partner max 1 µM) | 1 | 0.228 | 0.328 | 0.965 | 0.523 | 0.271 | 0.864 | 0.177 | 0.382 | 1 | 0.399 | 0.299 | 0.226 | 0.191 | 0.19 | 0.234 | 0.198 | 0.187 | 0.187 | 0.29
Cc1cc2ncnn2cc1Nc1ncc2c(n1)n(C1CCOCC1)c(=O)n2C [AZD7648] + CCN(CCO)CCCOc1ccc2c(Nc3cc(CC(=O)Nc4cccc(F)c4)[nH]n3)ncnc2c1 [AZD2811] (first compound max 10 µM, 7x7, partner max 1 µM) | 1 | 0.269 | 0.335 | 0.601 | 0.426 | 0.362 | 0.878 | 0.126 | 0.481 | 0.554 | 0.507 | 0.53 | 0.477 | 0.415 | 0.37 | 0.26 | 0.274 | 0.262 | 0.0971 | 0.394
COc1nnc2ccc(N3CCC(c4ccc(OCCN5CCN(C)C(=O)[C@H]5C)cc4)CC3)nn12 [AZD5153] + CCN(CCO)CCCOc1ccc2c(Nc3cc(CC(=O)Nc4cccc(F)c4)[nH]n3)ncnc2c1 [AZD2811] (first compound max 1 µM, 7x7, partner max 1 µM) | 1 | 0.524 | 0.486 | 0.722 | 0.676 | 0.651 | 0.986 | 0.355 | 0.846 | 0.75 | 0.602 | 0.505 | 0.65 | 0.553 | 0.71 | 0.278 | 0.657 | 0.394 | 0.436 | 0.434
Cc1c2c(nn1C)CSCc1cc(n(C)n1)CSc1cc(c3ccccc3c1)OCCCc1c(C(=O)O)n(C)c3c-2c(Cl)ccc13 [AZD5991] + C1CN(CCC1(C(=O)N[C@@H](CCO)C2=CC=C(C=C2)Cl)N)C3=NC=NC4=C3C=CN4 [Capivasertib] (first compound max 1 µM, 7x7, partner max 3 µM) | 1 | 0.254 | 0.868 | 0.987 | 0.272 | 0.927 | 0.409 | 0.201 | 0.857 | 1 | 0.344 | 0.297 | 0.194 | 0.248 | 0.224 | 0.302 | 0.514 | 0.204 | 0.149 | 0.329
Cc1c2c(nn1C)CSCc1cc(n(C)n1)CSc1cc(c3ccccc3c1)OCCCc1c(C(=O)O)n(C)c3c-2c(Cl)ccc13 [AZD5991] + CN(C)CCCOc1ccc(-c2ccc3ncc4c(c3c2)n(C2CCOCC2)c(=O)n4C)cn1 [AZD0156] (first compound max 1 µM, 7x7, partner max 1 µM) | 1 | 0.198 | 0.786 | 0.974 | 0.324 | 0.638 | 0.394 | 0.22 | 0.756 | 1 | 0.275 | 0.334 | 0.351 | 0.22 | 0.368 | 0.302 | 0.443 | 0.222 | 0.217 | 0.266
CN(CCO)CC[C@H](CSc1ccccc1)Nc1ccc(S(=O)(=O)NC(=O)c2ccc(N3CCC([C@@H](O)c4ccccc4-c4ccc(Cl)cc4)CC3)cc2)cc1S(=O)(=O)C(F)(F)F [AZD4320] + C1CN(CCC1(C(=O)N[C@@H](CCO)C2=CC=C(C=C2)Cl)N)C3=NC=NC4=C3C=CN4 [Capivasertib] (first compound max 1 µM, 7x7, partner max 3 µM) | 1 | 0.292 | 0.524 | 0.899 | 0.812 | 0.686 | 0.98 | 0.164 | 0.773 | 1 | 0.324 | 0.35 | 0.376 | 0.182 | 0.129 | 0.195 | 0.228 | 0.0749 | 0.074 | 0.321
CN(CCO)CC[C@H](CSc1ccccc1)Nc1ccc(S(=O)(=O)NC(=O)c2ccc(N3CCC([C@@H](O)c4ccccc4-c4ccc(Cl)cc4)CC3)cc2)cc1S(=O)(=O)C(F)(F)F [AZD4320] + Cn1cnc2c(F)c(Nc3ccc(Br)cc3Cl)c(C(=O)NOCCO)cc21 [Selumetinib] (first compound max 1 µM, 7x7, partner max 3 µM) | 1 | 0.847 | 0.557 | 0.953 | 0.747 | 0.565 | 0.971 | 0.245 | 0.84 | 1 | 0.941 | 0.87 | 0.832 | 0.421 | 0.3 | 0.248 | 0.554 | 0.337 | 0.406 | 0.597
